Experimental data published in patent publication US9840498B2, “Substituted quinazolin-4-one derivatives” (NOVARTIS AG, priority 2013, dated 2017).

Experiments:
Conditions in all cases: enzymatic assay
[1] = target: PI3K alpha (Homo sapiens (Human), UniProt P42336); test: Biochemical assay for PI3Kalpha (Kinase-Glo format)
Method: 1.1 Generation of Gene Constructs, Protein Expression and Purification
For the enzymatic assays, the preparation of PI3K gene constructs, protein expression and purification for HTS are described in WO2012/004299.
1.2 Biochemical Assays for PI3Kalpha, PI3Kbeta (Kinase-Glo Format)
The kinase reaction is performed in a final volume of 50 μl per well of a half area COSTAR, 96 well plate. The final concentrations of ATP and phosphatidyl inositol in the assay are 5 μM and 6 μg/mL, respectively. The reaction is started by the addition of PI3 kinase, e.g. PI3 kinase α.
The components of the assay are added per well as follows: • 10 μl test compound in 5% DMSO per well in […]. • Total activity is determined by addition 10 μl of 5% vol/vol DMSO in the first 4 wells of column 1 and the last 4 wells of column 12. • The background is determined by addition of 10 μM control compound to the last 4 wells of column 1 and the first 4 wells of column 12. • 2 mL ‘Assay mix’ are prepared per plate: • 1.912 mL of HEPES assay buffer • 8.33 μl of 3 mM stock of ATP giving a final concentration of 5 μM per well • 1 μl of [^33P]ATP on the activity date giving 0.05 μCi per well • 30 μl of 1 mg/mL PI stock giving a final concentration of 6 μg/mL per well • 5 μl of 1 M stock MgCl2 giving a final concentration of 1 mM per well • 20 μl of the assay mix are added per well. • 2 mL ‘Enzyme mix’ are prepared per plate (x* μl PI3 kinase p110α in 2 mL of kinase buffer). The ‘Enzyme mix’ is kept on ice during addition to the assay plates. * The volume of enzyme is dependent on the enzymatic activity of the batch in use. • 20 μl ‘Enzyme mix’ are added/well to start the reaction. • The plate is then incubated at room temperature for 90 minutes. • The reaction is terminated by the addition of 50 μl WGA-SPA bead (wheat germ agglutinin-coated Scintillation Proximity Assay beads) suspension per well. • The assay plate is sealed using TopSeal-S (heat seal for polystyrene microplates, PerkinElmer LAS [Deutschland] GmbH, Rodgau, Germany) and incubated at room temperature for at least 60 minutes. • The assay plate is then centrifuged at 1500 rpm for 2 minutes using the Jouan bench top centrifuge (Jouan Inc., Nantes, France). • The assay plate is counted using a Packard TopCount, each well being counted for 20 seconds.
In a more preferred assay, the kinase reaction is performed in a final volume of 10 μl per well of a low volume non-binding CORNING, 384 well black plate (Cat. No. #3676). The final concentrations of ATP and phosphatidyl inositol (PI) in the assay are 1 μM and 10 μg/mL, respectively. The reaction is started by the addition of ATP.
The components of the assay are added per well as follows: […]

[2] = target: PI3K delta (Homo sapiens (Human), UniProt O00329); test: Biochemical assay for PI3Kdelta (Adapta TR-FRET format)
Source text: (§1) For the enzymatic assays, the preparation of PI3K gene constructs, protein expression and purification for HTS are described in WO2012/004299. […] The TR-FRET Adapta™ Universal Kinase Assay Kit was purchased from Invitrogen Corporation (Carlsbad/CA, USA) (Cat. No. PV5099). The kit contains the following reagents: Adapta Eu-anti-ADP Antibody (Europium labeled anti-ADP antibody in HEPES buffered saline, Cat. No. PV5097), Alexa Fluor® 647-labeled ADP tracer (Alexa Fluor® 647-labeled ADP tracer in HEPES buffered saline, Cat. No. PV5098), proprietary TR-FRET dilution buffer pH 7.5 (Cat. No. PV3574). PIK3CD substrate Phosphatidylinositol was obtained from Invitrogen (vesicules consisting of 2 mM PI in 50 mM HEPES pH7.5; Cat. No. PV5371). PIK3CG substrate Phosphatidylinositol-4,5-bisphosphate (PIP(4,5)2 was obtained from Invitrogen (PIP2:PS large unilamellar vesicules consisting of 1 mM PI P2: 19 mM PS in 50 mM HEPES pH7.5, 3 mM MgCl2, 1 mM EGTA; Cat. No. PV5100). Time-Resolved Fluorescence Resonance Energy Transfer (TR-FRET) is a technology based on energy transfer between two adjacent dyes, from an excited electron in one dye (the donor) to an electron of an adjacent dye (the acceptor) through resonance, then released as a photon. This energy transfer is detected by an increase in the fluorescence emission of the acceptor, and a decrease in the fluorescence emission of the donor. TR-FRET assays for protein kinases use a long-lifetime lanthanide Terbium or Europium chelates as the donor species which overcome interference from compound autofluorescence or light scatter from precipitated compounds, by introducing a delay after excitation by a flashlamp excitation source. Results are often expressed as a ratio of the intensities of the acceptor and donor fluorophores. The ratiometric nature of such a value corrects for differences in assay volumes between wells, as well as corrects for quenching effects due to colored compounds. The Adapta™ assay can be divided into two phases: a kinase reaction phase and an ADP detection phase. In the kinase reaction phase, all kinase reaction components are added to the well and the reaction is allowed to incubate for a set period of time specific for each kinase. After the reaction, a detection solution of Eu-labeled anti-ADP antibody, Alexa Fluor® 647-labeled ADP tracer, and EDTA (to stop the kinase reaction) are added to the assay well. ADP formed by the kinase reaction will displace the Alexa Fluor® 647-labeled ADP tracer from the antibody, resulting in a decrease in TR-FRET signal. In the presence of an inhibitor, the amount of ADP formed by the kinase reaction is reduced, and the resulting intact antibody-tracer interaction maintains a high TR-FRET signal. In the Adapta™ assay, the donor (Europium-anti-ADP antibody) is excited at 340 nm and will transfer its energy to the acceptor (Alexa Fluor® 647-labeled ADP tracer). The emission from the Alexa Fluor® 647 can be monitored with a filter centered at 665 nm because it is located between the emission peaks of the donor, which is measured at 615/620 nm. 50 nL of compound dilutions were dispensed onto white 384-well small volume polystyrene plate as described in section 2.2. Then 5 μL of PI3Kgamma and PI3Kdelta and lipid substrate (PI or PIP2:PS) followed by 5 μL of ATP (final assay volume 10 μL) are incubated at RT. […] Reactions were stopped with 5 μL of a mixture of EDTA containing the Eu-labeled anti-ADP antibody and the Alexa Fluor® 647-labeled ADP tracer in TR-FRET dilution buffer (proprietary to IVG). Plates are read 15 to 60 mins later in a Synergy2 reader using an integration time of 0.4 seconds and a delay of 0.05 seconds. […] The control for the 0% inhibition was given by the solvent vehicle of the compounds (90% DMSO in H2O). Data are analyzed using Excel fit software or Graphpad Prism. EC50 values were derived by fitting a sigmoidal dose-response curve to a plot of assay readout over inhibitor concentration. […]

[3] = target: PI3K gamma (Homo sapiens (Human), UniProt P48736); test: Biochemical assay for PI3Kgamma (Adapta TR-FRET format)
Source text: as §1

Chain of PI3K gamma (P48736 whole entry): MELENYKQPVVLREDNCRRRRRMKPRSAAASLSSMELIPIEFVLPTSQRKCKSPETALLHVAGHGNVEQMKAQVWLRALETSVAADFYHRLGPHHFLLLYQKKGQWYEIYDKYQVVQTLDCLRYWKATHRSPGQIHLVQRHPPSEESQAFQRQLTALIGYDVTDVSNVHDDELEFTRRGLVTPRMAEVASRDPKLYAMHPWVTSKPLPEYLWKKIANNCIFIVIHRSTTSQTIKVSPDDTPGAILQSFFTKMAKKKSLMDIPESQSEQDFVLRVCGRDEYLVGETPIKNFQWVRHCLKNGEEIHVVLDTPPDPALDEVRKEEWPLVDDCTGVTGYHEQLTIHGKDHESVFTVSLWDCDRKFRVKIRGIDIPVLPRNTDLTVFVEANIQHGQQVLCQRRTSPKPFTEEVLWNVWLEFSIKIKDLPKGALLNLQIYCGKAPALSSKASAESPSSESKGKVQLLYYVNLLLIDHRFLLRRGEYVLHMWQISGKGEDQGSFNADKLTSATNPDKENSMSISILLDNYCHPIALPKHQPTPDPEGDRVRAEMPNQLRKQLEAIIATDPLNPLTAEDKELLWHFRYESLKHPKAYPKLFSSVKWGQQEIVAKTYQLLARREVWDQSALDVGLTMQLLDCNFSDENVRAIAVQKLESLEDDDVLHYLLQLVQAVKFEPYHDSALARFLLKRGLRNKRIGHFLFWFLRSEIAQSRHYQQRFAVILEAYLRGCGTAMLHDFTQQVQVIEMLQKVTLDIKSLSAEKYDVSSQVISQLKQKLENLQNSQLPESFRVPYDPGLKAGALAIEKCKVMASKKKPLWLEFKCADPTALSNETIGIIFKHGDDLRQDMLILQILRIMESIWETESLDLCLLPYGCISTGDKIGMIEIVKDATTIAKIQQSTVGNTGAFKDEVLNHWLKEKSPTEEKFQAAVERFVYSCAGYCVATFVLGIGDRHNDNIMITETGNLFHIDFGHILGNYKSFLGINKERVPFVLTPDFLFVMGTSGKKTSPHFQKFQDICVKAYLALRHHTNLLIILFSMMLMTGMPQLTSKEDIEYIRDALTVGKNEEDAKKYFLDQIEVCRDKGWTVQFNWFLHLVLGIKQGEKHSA
Chain of PI3K alpha (P42336 21-1068): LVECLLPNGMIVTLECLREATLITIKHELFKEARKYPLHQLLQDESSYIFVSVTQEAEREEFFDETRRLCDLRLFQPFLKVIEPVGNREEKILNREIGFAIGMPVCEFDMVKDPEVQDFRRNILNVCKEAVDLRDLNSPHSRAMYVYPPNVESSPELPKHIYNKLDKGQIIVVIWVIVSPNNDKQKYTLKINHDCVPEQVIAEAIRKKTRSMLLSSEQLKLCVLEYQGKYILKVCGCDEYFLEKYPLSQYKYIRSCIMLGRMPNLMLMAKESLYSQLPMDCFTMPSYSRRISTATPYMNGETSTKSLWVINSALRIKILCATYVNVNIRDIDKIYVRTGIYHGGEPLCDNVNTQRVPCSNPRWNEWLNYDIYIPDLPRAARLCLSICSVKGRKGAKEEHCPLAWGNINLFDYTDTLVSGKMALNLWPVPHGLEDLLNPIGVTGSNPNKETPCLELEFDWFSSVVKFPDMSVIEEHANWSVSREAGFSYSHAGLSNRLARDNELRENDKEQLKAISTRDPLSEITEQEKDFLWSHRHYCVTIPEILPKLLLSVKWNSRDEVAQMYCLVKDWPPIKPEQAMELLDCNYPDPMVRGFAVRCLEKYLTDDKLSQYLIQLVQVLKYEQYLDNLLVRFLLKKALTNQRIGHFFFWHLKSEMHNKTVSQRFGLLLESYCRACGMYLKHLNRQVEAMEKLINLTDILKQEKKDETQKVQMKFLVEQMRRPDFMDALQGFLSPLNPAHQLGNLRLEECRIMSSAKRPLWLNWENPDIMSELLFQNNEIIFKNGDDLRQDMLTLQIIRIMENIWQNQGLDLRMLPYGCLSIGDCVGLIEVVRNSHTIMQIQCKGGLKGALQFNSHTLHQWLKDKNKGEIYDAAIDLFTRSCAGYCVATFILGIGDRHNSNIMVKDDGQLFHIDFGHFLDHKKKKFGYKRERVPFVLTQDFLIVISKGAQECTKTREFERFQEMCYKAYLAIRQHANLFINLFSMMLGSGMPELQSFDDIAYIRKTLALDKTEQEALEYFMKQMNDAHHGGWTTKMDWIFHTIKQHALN
Chain of PI3K alpha (P27986 461-568 partner): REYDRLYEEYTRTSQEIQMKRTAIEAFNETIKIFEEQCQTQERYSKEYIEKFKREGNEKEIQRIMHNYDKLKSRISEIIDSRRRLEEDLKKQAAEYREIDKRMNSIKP
Chain of PI3K delta (O00329 2-1044): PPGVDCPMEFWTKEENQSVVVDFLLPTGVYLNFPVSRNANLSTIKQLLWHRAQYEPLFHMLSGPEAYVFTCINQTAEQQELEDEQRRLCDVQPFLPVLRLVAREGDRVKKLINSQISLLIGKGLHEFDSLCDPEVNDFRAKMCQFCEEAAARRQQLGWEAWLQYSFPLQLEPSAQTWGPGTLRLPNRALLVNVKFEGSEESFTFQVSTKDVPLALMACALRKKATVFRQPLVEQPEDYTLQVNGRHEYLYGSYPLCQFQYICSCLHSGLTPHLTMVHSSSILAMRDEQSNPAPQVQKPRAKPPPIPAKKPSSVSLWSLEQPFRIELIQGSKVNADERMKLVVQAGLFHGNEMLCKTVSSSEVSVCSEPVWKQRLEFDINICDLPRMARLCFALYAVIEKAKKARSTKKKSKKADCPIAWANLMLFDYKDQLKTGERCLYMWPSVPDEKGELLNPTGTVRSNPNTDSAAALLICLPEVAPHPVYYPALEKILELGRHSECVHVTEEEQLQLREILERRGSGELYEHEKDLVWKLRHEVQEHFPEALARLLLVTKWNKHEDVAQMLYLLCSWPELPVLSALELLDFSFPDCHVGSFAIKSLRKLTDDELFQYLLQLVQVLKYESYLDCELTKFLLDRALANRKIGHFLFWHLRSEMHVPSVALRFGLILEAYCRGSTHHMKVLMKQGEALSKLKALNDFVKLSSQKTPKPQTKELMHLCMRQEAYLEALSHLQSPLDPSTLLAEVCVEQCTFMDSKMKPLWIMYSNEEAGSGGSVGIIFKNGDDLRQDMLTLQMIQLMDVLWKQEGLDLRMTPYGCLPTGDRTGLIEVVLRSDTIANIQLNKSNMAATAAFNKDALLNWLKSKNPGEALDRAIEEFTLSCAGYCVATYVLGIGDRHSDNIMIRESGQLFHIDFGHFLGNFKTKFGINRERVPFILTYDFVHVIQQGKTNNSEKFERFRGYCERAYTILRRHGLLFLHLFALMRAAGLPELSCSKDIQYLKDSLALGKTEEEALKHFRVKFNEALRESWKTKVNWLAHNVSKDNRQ
Chain of PI3K delta (P27986 461-568 partner): as the sequence (P27986 461-568 partner) above

SMILES | IC50 [1] | IC50 [2] | IC50 [3]
COc1cncc(-c2cccc3nc([C@@H]4CCCN4c4nc(N)nc(C)c4C#N)n(-c4ccccc4)c(=O)c23)c1 [Example 18, (S)-2-Amino-4-(2-(5-(5-methoxypyridin-3-yl)-4-oxo-3-phenyl-3,4-dihydroquinazolin-2-yl)pyrrolidin-1-yl)-6-methylpyrimidine-5-carbonitrile] | 56 nM | 14 nM | 89 nM
Cn1cc(-c2c(F)ccc3nc([C@@H]4C[C@H](O)CN4c4ncnc(N)c4C#N)n(-c4ccccc4)c(=O)c23)cn1 [Example 8, 4-Amino-6-((2S,4S)-2-(6-fluoro-5-(1-methyl-1H-pyrazol-4-yl)-4-oxo-3-phenyl-3,4-dihydroquinazolin-2-yl)-4-hydroxypyrrolidin-1-yl) pyrimidine-5-carbonitrile] | 1100 nM | 14 nM | 750 nM
Cc1nc(N)nc(N2CCC[C@H]2c2nc3cccc(-c4cncnc4)c3c(=O)n2-c2ccccc2)c1C#N [Example 17, (S)-2-Amino-4-methyl-6-(2-(4-oxo-3-phenyl-5-(pyrimidin-5-yl)-3,4-dihydroquinazolin-2-yl)pyrrolidin-1-yl)pyrimidine-5-carbonitrile] | 1200 nM | 21 nM | 940 nM
Cn1cnc(-c2cccc3nc([C@@H]4CCCN4c4ncnc(N)c4C#N)n(-c4ccccc4)c(=O)c23)c1 [Example 15, (S)-4-Amino-6-(2-(5-(1-methyl-1H-imidazol-4-yl)-4-oxo-3-phenyl-3,4-dihydroquinazolin-2-yl)pyrrolidin-1-yl)pyrimidine-5-carbonitrile] | > 10000 nM | > 10000 nM | > 10000 nM
CO[C@H]1C[C@@H](c2nc3cccc(-c4cnn(C)c4)c3c(=O)n2-c2ccccc2)N(c2nc(N)nc3[nH]cnc23)C1 [Example 11, 2-((2S,4S)-1-(2-Amino-9H-purin-6-yl)-4-methoxypyrrolidin-2-yl)-5-(1-methyl-1H-pyrazol-4-yl)-3-phenylquinazolin-4(3H)-one] | 2300 nM | 45 nM | 230 nM
COc1ccc(-c2cccc3nc([C@@H]4C[C@H](O)CN4c4nc(N)nc(C)c4C#N)n(-c4ccccc4)c(=O)c23)cn1 [Example 27, 2-Amino-4-((2S,4S)-4-hydroxy-2-(5-(6-methoxypyridin-3-yl)-4-oxo-3-phenyl-3,4-dihydroquinazolin-2-yl)pyrrolidin-1-yl)-6-methylpyrimidine-5-carbonitrile] | 86 nM | 10 nM | 58 nM
CO[C@H]1C[C@@H](c2nc3cccc(-c4cnn(C)c4)c3c(=O)n2-c2ccccc2)N(c2nc(N)nc(C)c2C#N)C1 [Example 10, 2-Amino-4-((2S,4S)-4-methoxy-2-(5-(1-methyl-1H-pyrazol-4-yl)-4-oxo-3-phenyl-3,4-dihydroquinazolin-2-yl)pyrrolidin-1-yl)-6-methylpyrimidine-5-carbonitrile] | 1300 nM | 6 nM | 38 nM
Cc1nc(N)nc(N2C[C@@H](O)C[C@H]2c2nc3ccc(F)c(-c4cnn(C)c4)c3c(=O)n2-c2ccccc2)c1C#N [Example 1, 2-Amino-4-((2S,4S)-2-(6-fluoro-5-(1-methyl-1H-pyrazol-4-yl)-4-oxo-3-phenyl-3,4-dihydroquinazolin-2-yl)-4-hydroxypyrrolidin-1-yl)-6-methylpyrimidine-5-carbonitrile] | 74 nM | 8 nM | 28 nM
Cc1nc(N)nc(N2C[C@@H](O)C[C@H]2c2nc3cccc(-c4cccnc4)c3c(=O)n2-c2ccccc2)c1C#N [Example 24, 2-Amino-4-((2S,4S)-4-hydroxy-2-(4-oxo-3-phenyl-5-(pyridin-3-yl)-3,4-dihydroquinazolin-2-yl)pyrrolidin-1-yl)-6-methylpyrimidine-5-carbonitrile] | 170 nM | 5 nM | 81 nM
COc1ncc(-c2c(F)ccc3nc([C@@H]4C[C@H](O)CN4c4nc(N)nc(C)c4C#N)n(-c4ccccc4)c(=O)c23)s1 [Example 9, 2-Amino-4-((2S,4S)-2-(6-fluoro-5-(2-methoxythiazol-5-yl)-4-oxo-3-phenyl-3,4-dihydroquinazolin-2-yl)-4-hydroxypyrrolidin-1-yl)-6-methylpyrimidine-5-carbonitrile] | 53 nM | 8 nM | 18 nM
Cc1nc(N)nc(N2CCC[C@H]2c2nc3cccc(-c4cccnc4)c3c(=O)n2-c2ccccc2)c1C#N [Example 20, (S)-2-Amino-4-methyl-6-(2-(4-oxo-3-phenyl-5-(pyridin-3-yl)-3,4-dihydroquinazolin-2-yl)pyrrolidin-1-yl)pyrimidine-5-carbonitrile] | 260 nM | 15 nM | 140 nM
Cc1nc(N)nc(N2C[C@@H](O)C[C@H]2c2nc3cccc(-c4cncnc4)c3c(=O)n2-c2ccccc2)c1C#N [Example 26, 2-Amino-4-((2S,4S)-4-hydroxy-2-(4-oxo-3-phenyl-5-(pyrimidin-5-yl)-3,4-dihydroquinazolin-2-yl)pyrrolidin-1-yl)-6-methylpyrimidine-5-carbonitrile] | 530 nM | 6 nM | 410 nM
